According to patent publication US9833497B2, “Human originated EGF domain proteins and use of the same” (CHENGDU SOURCEBIO LIMITED-LIABILITY COMPANY, priority 2013, dated 2017):

Experiments:
Type in all cases: cell-based
E. coli BL21 = assay: MIC against Gram-negative bacteria: E. coli BL21; settings: 5×10^5 CFU/mL
How it was run: (§1)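 Inocula prepared by growing LB cultures at 37° C to 0.5 McFarland, centrifuging at 4000×g, and resuspending in fresh medium. Final density 5×10^5 CFU/mL per well with two-fold dilutions of purified EGF domain protein; shaking incubation at 37° C.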

Klebsiella pneumonia = assay: MIC against Gram-negative bacteria: Klebsiella pneumonia; settings: 5×10^5 CFU/mL
How it was run: as §1

Serratia marcescens = assay: MIC against Gram-negative bacteria: Serratia marcescens; settings: 5×10^5 CFU/mL
How it was run: as §1

Proteus mirabilis = assay: MIC against Gram-negative bacteria: Proteus mirabilis; settings: 5×10^5 CFU/mL
How it was run: as §1

Citrobacter diversus = assay: MIC against Gram-negative bacteria: Citrobacter diversus; settings: 5×10^5 CFU/mL
How it was run: as §1

Pseudomonas aeruginosa = assay: MIC against Gram-negative bacteria: Pseudomonas aeruginosa; settings: 5×10^5 CFU/mL
How it was run: as §1

E. coli DH5α = assay: Antibacterial activity: MIC and growth curve against E. coli DH5α in 96-well plate; settings: minimal inhibitory concentration against E. coli DH5α; 96-well plate, 5×10^5 CFU/mL, 37° C., judged after 8 h
How it was run: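 Log-phase bacteria (OD600 ~0.5) resuspended in LB at 5×10^5 CFU/mL, exposed to recombinant protein at 50, 25, 12.5 μg/mL final in triplicate, 37 °C shaking at 175 rpm. OD600 read every 30 min; MIC is lowest concentration showing no growth.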

Enterobacter cloacae = assay: MIC against Gram-negative bacteria: Enterobacter cloacae; settings: 5×10^5 CFU/mL
How it was run: as §1

Proteus vulgaris = assay: MIC against Gram-negative bacteria: Proteus vulgaris; settings: 5×10^5 CFU/mL
How it was run: as §1

Moraxella catarrhalis = assay: MIC against Gram-negative bacteria: Moraxella catarrhalis; settings: 5×10^5 CFU/mL
How it was run: as §1

Aeromonas hydrophila = assay: MIC against Gram-negative bacteria: Aeromonas hydrophila; settings: 5×10^5 CFU/mL
How it was run: as §1

[1] = E. coli BL21, 96-well plate, 37° C., 10 h
[2] = Klebsiella pneumonia, 96-well plate, 37° C., 10 h
[3] = Serratia marcescens, 96-well plate, 37° C., 10 h
[4] = Proteus mirabilis, 96-well plate, 37° C., 10 h
[5] = Citrobacter diversus, 96-well plate, 37° C., 10 h
[6] = Pseudomonas aeruginosa, 96-well plate, 37° C., 10 h
[7] = Enterobacter cloacae, 96-well plate, 37° C., 10 h
[8] = Proteus vulgaris, 96-well plate, 37° C., 10 h
[9] = Moraxella catarrhalis, 96-well plate, 37° C., 10 h
[10] = Aeromonas hydrophila, 96-well plate, 37° C., 10 h
[11] = E. coli BL21, 10 h cultivation at 37° C.
[12] = K. pneumonia, 10 h cultivation at 37° C.
[13] = S. marcescens, 10 h cultivation at 37° C.
[14] = P. mirabilis, 10 h cultivation at 37° C.
[15] = C. diversus, 10 h cultivation at 37° C.
[16] = P. aeruginosa, 10 h cultivation at 37° C.
[17] = E. cloacae, 10 h cultivation at 37° C.
[18] = P. vulgaris, 10 h cultivation at 37° C.
[19] = M. catarrhalis, 10 h cultivation at 37° C.
[20] = A. hydrophila, 10 h cultivation at 37° C.

PRT1253 (WPRQCPCLVDGARYWPGQRIKADCQLCICQDGRPRRCR; listed as Homo sapiens)
12.5 µg/mL: MIC against E. coli BL21 (E. coli BL21; [1]) | MIC against E. cloacae (Enterobacter cloacae; [7]) | MIC against M. catarrhalis (Moraxella catarrhalis; [9])
50 µg/mL: MIC against P. aeruginosa (Pseudomonas aeruginosa; [6]) | MIC (E. coli DH5α) | MIC against P. vulgaris (Proteus vulgaris; [8]) | MIC against A. hydrophila (Aeromonas hydrophila; [10])
25 µg/mL: MIC against K. pneumonia (Klebsiella pneumonia; [2]) | MIC against S. marcescens (Serratia marcescens; [3]) | MIC against P. mirabilis (Proteus mirabilis; [4]) | MIC against C. diversus (Citrobacter diversus; [5])

PRT835 (DVDECASSRGGCEHHCTNLAGSFQCSCEAGYRLHEDRRGCS; listed as Homo sapiens)
12.5 µg/mL: MIC (μg/mL) K. pneumonia (Klebsiella pneumonia; [12]) | MIC (μg/mL) C. diversus (Citrobacter diversus; [15]) | MIC (μg/mL) P. vulgaris (Proteus vulgaris; [18])
50 µg/mL: MIC (μg/mL) E. coli BL21 (E. coli BL21; [11]) | MIC (μg/mL) P. mirabilis (Proteus mirabilis; [14]) | MIC (μg/mL) E. cloacae (Enterobacter cloacae; [17])
25 µg/mL: MIC (μg/mL) S. marcescens (Serratia marcescens; [13]) | MIC (μg/mL) P. aeruginosa (Pseudomonas aeruginosa; [16]) | MIC (E. coli DH5α) | MIC (μg/mL) M. catarrhalis (Moraxella catarrhalis; [19]) | MIC (μg/mL) A. hydrophila (Aeromonas hydrophila; [20])

PRT642 (DVNECDELNNRMSLCKNAKCINTDGSYKCLCLPGYVPSDKPNYCT; listed as Homo sapiens)
12.5 µg/mL: MIC K. pneumonia (Klebsiella pneumonia; 96-well plate, 37° C., 10 h) | MIC (E. coli DH5α) | MIC M. catarrhalis (Moraxella catarrhalis; 96-well plate, 37° C., 10 h)
25 µg/mL: MIC S. marcescens (Serratia marcescens; 96-well plate, 37° C., 10 h) | MIC P. mirabilis (Proteus mirabilis; 96-well plate, 37° C., 10 h) | MIC C. diversus (Citrobacter diversus; 96-well plate, 37° C., 10 h) | MIC P. aeruginosa (Pseudomonas aeruginosa; 96-well plate, 37° C., 10 h) | MIC E. cloacae (Enterobacter cloacae; 96-well plate, 37° C., 10 h)
50 µg/mL: MIC E. coli BL21 (E. coli BL21; 96-well plate, 37° C., 10 h) | MIC P. vulgaris (Proteus vulgaris; 96-well plate, 37° C., 10 h) | MIC A. hydrophila (Aeromonas hydrophila; 96-well plate, 37° C., 10 h)

PRT1218 (DINECEREECENGGSCVNVFGSFLCNCTPGYVGQYCG; listed as Homo sapiens)
12.5 µg/mL: MIC against K. pneumonia (Klebsiella pneumonia; [2]) | MIC against P. mirabilis (Proteus mirabilis; [4]) | MIC (E. coli DH5α) | MIC against E. cloacae (Enterobacter cloacae; [7]) | MIC against P. vulgaris (Proteus vulgaris; [8]) | MIC against M. catarrhalis (Moraxella catarrhalis; [9]) | MIC against A. hydrophila (Aeromonas hydrophila; [10])
25 µg/mL: MIC against E. coli BL21 (E. coli BL21; [1]) | MIC against S. marcescens (Serratia marcescens; [3]) | MIC against C. diversus (Citrobacter diversus; [5]) | MIC against P. aeruginosa (Pseudomonas aeruginosa; [6])

PRT202 (KSTNCSSKCKGHAVCDHELQCQCEEGWIPPDCD; listed as Homo sapiens)
25 µg/mL: MIC (μg/mL) S. marcescens (Serratia marcescens; [13]) | MIC (μg/mL) P. mirabilis (Proteus mirabilis; [14]) | MIC (E. coli DH5α)
12.5 µg/mL: MIC (μg/mL) E. coli BL21 (E. coli BL21; [11]) | MIC (μg/mL) K. pneumonia (Klebsiella pneumonia; [12]) | MIC (μg/mL) C. diversus (Citrobacter diversus; [15]) | MIC (μg/mL) P. aeruginosa (Pseudomonas aeruginosa; [16]) | MIC (μg/mL) E. cloacae (Enterobacter cloacae; [17]) | MIC (μg/mL) P. vulgaris (Proteus vulgaris; [18]) | MIC (μg/mL) M. catarrhalis (Moraxella catarrhalis; [19]) | MIC (μg/mL) A. hydrophila (Aeromonas hydrophila; [20])

PRT90 (CDCYPVGSTSRSCAPHSGQCPCRPGALGRQCNSCDSPFAEVTASGCRV; listed as Homo sapiens)
25 µg/mL: MIC (μg/mL) P. mirabilis (Proteus mirabilis; [4]) | MIC (μg/mL) C. diversus (Citrobacter diversus; [5])
50 µg/mL: MIC (E. coli DH5α)
12.5 µg/mL: MIC (μg/mL) E. coli BL21 (E. coli BL21; [1]) | MIC (μg/mL) K. pneumonia (Klebsiella pneumonia; [2]) | MIC (μg/mL) S. marcescens (Serratia marcescens; [3]) | MIC (μg/mL) P. aeruginosa (Pseudomonas aeruginosa; [6]) | MIC (μg/mL) E. cloacae (Enterobacter cloacae; [7]) | MIC (μg/mL) P. vulgaris (Proteus vulgaris; [8]) | MIC (μg/mL) M. catarrhalis (Moraxella catarrhalis; [9]) | MIC (μg/mL) A. hydrophila (Aeromonas hydrophila; [10])

PRT534 (CKCHKAGTVSGTGECRQGDGDCHCKSHVGGDSCDTCEDGYFALEKSNYFGCQG; listed as Homo sapiens)
25 µg/mL: MIC against S. marcescens (Serratia marcescens; 96-well plate, 37° C., 10 h) | MIC against P. mirabilis (Proteus mirabilis; 96-well plate, 37° C., 10 h)
12.5 µg/mL: MIC against E. coli BL21 (E. coli BL21; 96-well plate, 37° C., 10 h) | MIC against K. pneumonia (Klebsiella pneumonia; 96-well plate, 37° C., 10 h) | MIC against M. catarrhalis (Moraxella catarrhalis; 96-well plate, 37° C., 10 h) | MIC against A. hydrophila (Aeromonas hydrophila; 96-well plate, 37° C., 10 h)
50 µg/mL: MIC against C. diversus (Citrobacter diversus; 96-well plate, 37° C., 10 h) | MIC against P. aeruginosa (Pseudomonas aeruginosa; 96-well plate, 37° C., 10 h) | MIC (E. coli DH5α) | MIC against E. cloacae (Enterobacter cloacae; 96-well plate, 37° C., 10 h) | MIC against P. vulgaris (Proteus vulgaris; 96-well plate, 37° C., 10 h)
